Assay results: patent US20130252944A1, “NOVEL FUSED PYRAZOLE DERIVATIVES AND THEIR USE AS ALLOSTERIC MODULATORS OF METABOTROPIC GLUTAMATE RECEPTORS” (priority 2010, published 2013)

target: T1, recombinant human mGluR4a receptors (Homo sapiens, UniProt Q14833); test: Fluorescent cell based Ca2+ mobilization assay (FLIPR) on HEK-293 cells expressing human mGluR4; conditions: positive allosteric modulation in presence of EC25 glutamate; HEK-293 hmGluR4; mean of at least three independent experiments in duplicate; read-out: Ca^2+ Flux (mean EC50)
T1 construct: expressed in transfected cells
T1 sequence (Q14833 33-912): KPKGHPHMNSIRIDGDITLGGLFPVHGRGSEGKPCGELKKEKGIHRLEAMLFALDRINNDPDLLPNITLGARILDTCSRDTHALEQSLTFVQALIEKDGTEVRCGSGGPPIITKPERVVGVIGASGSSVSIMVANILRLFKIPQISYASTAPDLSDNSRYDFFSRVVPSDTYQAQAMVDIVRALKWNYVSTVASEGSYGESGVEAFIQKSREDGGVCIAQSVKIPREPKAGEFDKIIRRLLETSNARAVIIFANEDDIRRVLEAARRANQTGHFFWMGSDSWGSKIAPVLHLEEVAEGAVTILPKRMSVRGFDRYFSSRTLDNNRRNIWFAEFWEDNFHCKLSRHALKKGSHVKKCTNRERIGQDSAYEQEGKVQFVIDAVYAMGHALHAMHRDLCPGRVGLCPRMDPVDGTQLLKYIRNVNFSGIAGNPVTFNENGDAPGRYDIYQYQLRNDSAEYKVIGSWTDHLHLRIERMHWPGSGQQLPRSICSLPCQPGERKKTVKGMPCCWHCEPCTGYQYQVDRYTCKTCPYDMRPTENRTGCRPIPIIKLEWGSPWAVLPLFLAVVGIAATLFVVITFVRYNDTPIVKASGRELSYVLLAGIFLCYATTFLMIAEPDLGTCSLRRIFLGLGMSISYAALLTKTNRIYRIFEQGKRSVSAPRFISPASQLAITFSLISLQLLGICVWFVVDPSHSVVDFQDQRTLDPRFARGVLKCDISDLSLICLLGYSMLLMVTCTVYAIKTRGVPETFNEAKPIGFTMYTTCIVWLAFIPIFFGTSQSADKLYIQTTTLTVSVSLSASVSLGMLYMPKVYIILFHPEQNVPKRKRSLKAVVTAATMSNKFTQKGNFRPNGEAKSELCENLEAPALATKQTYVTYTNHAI
Text: mGluR4 Assay on HEK-Expressing Human mGluR4
The compounds of the present invention are positive allosteric modulators of mGluR4 receptor. Their activity was examined on recombinant human mGluR4a receptors by detecting changes in intracellular Ca^2+concentration, using the fluorescent Ca^2+-sensitive dye Fluo4-(AM) and a Fluorometric Imaging Plate Reader (FLIPR, Molecular Devices, Sunnyvale, Calif.).
The cDNA encoding the human metabotropic glutamate receptor (hmGluR4), (accession number NM_000841.1, NCBI Nucleotide database browser), was subcloned into an expression vector containing also the hygromycin resistance gene. In parallel, the cDNA encoding a G protein allowing redirection of the activation signal to intracellular calcium flux was subcloned into a different expression vector containing also the puromycin resistance gene. Transfection of both these vectors into HEK293 cells with PolyFect reagent (Qiagen) according to supplier's protocol, and hygromycin and puromycin treatment allowed selection of antibiotic resistant cells which had integrated stably one or more copies of the plasmids. Positive cellular clones expressing hmGluR4 were identified in a functional assay measuring changes in calcium fluxes in response to glutamate or selective known mGluR4 orthosteric agonists and antagonists.
HEK-293 cells expressing hmGluR4 were maintained in media containing DMEM, dialyzed Fetal Calf Serum (10%), Glutamax™ (2 mM), Penicillin (100 units/mL), Streptomycin (100 μg/mL), Geneticin (100 μg/mL) and Hygromycin-B (40 μg/mL) and puromycin (1 μg/mL) at 37° C./5% CO2.
Human mGluR4 HEK-293 cells were plated out 24 hours prior to FLIPR^384 assay in black-walled, clear-bottomed, poly-L-ornithine-coated 384-well plates at a density of 25,000 cells/well in a glutamine/glutamate free DMEM medium containing foetal bovine serum (10%), penicillin (100 units/mL) and streptomycin (100 μg/mL) at 37° C./5% CO2.
On the day of the assay, the medium was aspirated and the cells were loaded with a 3 μM solution of Fluo4-AM (LuBioScience, Lucerne, Switzerland) in 0.03% pluronic acid. After 1 hour at 37° C./5% CO2, the non incorporated dye was removed by washing cell plate with the assay buffer and the cells were left in the dark at room temperature for […] before testing. All assays were performed in a pH=7.4 buffered-solution containing 20 mM HEPES, 143 mM NaCl, 6 mM KCl, 1 mM MgSO4, 1 mM CaCl2, 0.125 mM sulfapyrazone and 0.1% glucose.
After 10 s of basal fluorescence recording, various concentrations of the compounds of the invention were added to the cells. Changes in fluorescence levels were first monitored for 180 s in order to detect any agonist activity of the compounds. Then the cells were stimulated by an EC25 glutamate concentration for an additional 110 s in order to measure enhancing activities of the compounds of the invention. EC25 glutamate concentration is the concentration giving 25% of the maximal glutamate response.
The concentration-response curves of representative compounds of the present invention were generated using the Prism GraphPad software (Graph Pad Inc, San Diego, USA). The curves were fitted to a four-parameter logistic equation:
(Y=Bottom+(Top−Bottom)/(1+10̂((LogEC50−X)*Hill Slope)
allowing the determination of EC50 values.
The Table 3 below represents the mean EC50 obtained from at least three independent experiments of selected molecules performed in duplicate.

| EC50 | SMILES |
| --- | --- |
| 100 to 1000 nM | Cc1nc(Nc2nc3c(s2)COC(C(C)C)c2[nH]ncc2-3)ncc1F (stereo not drawn) [Compound 1-29, (5-Fluoro-4-methyl-pyrimidin-2-yl)-(6-isopropyl-6,7-dihydro-4H-5-oxa-3-thia-1,7,8-triaza-cyclopenta[e]azulen-2-yl)-amine] |
| < 100 nM | Cc1ccnc(Nc2nc3c(s2)COC(C)(C)c2n[nH]cc2-3)n1 [Compound 1-10, (6,6-Dimethyl-6,8-dihydro-4H-5-oxa-3-thia-1,7,8-triaza-cyclopenta[e]azulen-2-yl)-(4-methylpyrimidin-2-yl)-amine] |
| 100 to 1000 nM | Cc1ccnc(Nc2nc3c(s2)CCC(O)c2[nH]ncc2-3)n1 (stereo not drawn) [Compound 1-3, 2-(4-Methyl-pyrimidin-2-ylamino)-4,5,6,7-tetrahydro-3-thia-1,7,8-triaza-cyclopenta[e]azulen-6-ol] |
